Values after ≈ are worked out from the molar mass of the structure shown. Bounds are passed on as bounds.

Holding throughout (format): functional
In experiment [1] the test system is Clostridioides difficile. In words: Antibacterial activity against Clostridium difficile clinical isolate expressing tet(M) gene by Etest.
The test system of experiment [2] is Clostridioides difficile. In words: Antibacterial activity against Clostridium difficile CD5 expressing tet(W) gene.
Experiment [3] has as its system Clostridioides difficile. As to the kind of experiment: Antibacterial activity against Clostridium difficile CD37 harboring tet(M) gene from Clostridium difficile CD5.

Turning to `CN(C)[C@@H]1C(O)=C(C(N)=O)C(=O)[C@@]2(O)C(O)=C3C(=O)c4c(O)cccc4[C@@](C)(O)[C@H]3C[C@@H]12` [TETRACYCLINE], the MIC (in general, the lowest concentration that inhibits growth of the organism) against Clostridioides difficile [1] was at least 8 µg/mL; against Clostridioides difficile [2], 8 µg/mL (≈ 18 µM); with Clostridioides difficile [3] it was 8 µg/mL (≈ 18 µM).

The values above are taken from ChEMBL document CHEMBL1152996, “Tetracycline resistance gene tet(W) in the pathogenic bacterium Clostridium difficile” (2008).
